Assays:
[1] = Incorporation of BCNU into GMO gel without disruption of the three-dimensional structure; format: physicochemical; conditions: physiologic temperature
Text: The drug, such as BCNU, releases from the semisolid through diffusion, conceivably in a biphasic manner. A first phase involves, for example, a lipophilic drug contained within the lipophilic membrane diffuses therefrom into the aqueous channel 15. The second phase involves diffusion of the drug from the aqueous channel 15 into the external environment. Being lipophilic, BCNU orients itself inside the GMO gel within its proposed lipid bi-layer structure. Thus, incorporating greater than approximately 7.5% BCNU by weight into GMO causes a loss of the integrity of the three-dimensional structure whereby the gel system no longer maintains the semisolid cubic phase, and reverts to the viscous lamellar phase liquid.
It is possible to incorporate approximately 7.5% BCNU by weight into GMO gel at physiologic temperature without disruption of the normal three-dimensional structure. In addition, an average glioma tumor measures approximately 3 centimeters in diameter and equates to approximately 14 cubic centimeters in volume. As a result, approximately 11.5 to 12.0 grams of GMO gel may be implanted into the resection pocket. This equates to a possible drug dosage of approximately 900 milligrams with maximal drug. As stated earlier, the clinically recommended dose of BCNU delivered by Gliadel® Wafers to date is approximately 65 milligrams.

[2] = Miscibility of GMS in H2O; format: physicochemical
Text: It is recognized that alternative semisolids, modified formulations and methods of production exist such that the lipophilic nature of the semisolid can be altered, or in the alternative, the aqueous channels 15 contained within the semisolid can be altered. Thus, various therapeutic agents in varying concentrations may diffuse from the semisolid at differing rates, or be released therefrom over time via the aqueous channels 15 of the semisolid. Hydrophilic substances may be utilized to alter semisolid consistency or drug release by alteration of viscosity, fluidity, surface tension or the polarity of the aqueous component. […] However, because GMS is a surfactant, GMS is miscible in H2O up to approximately 20% weight/weight. For purposes of this disclosure, the term “surfactant” means surface active agent, thus being miscible in H2O in limited concentrations as well as polar substances. Upon heating and stirring, the 80% H2O/20% GMS combination produces a spreadable paste having a consistency resembling hand lotion.

miscibility in H2O [2] [% weight/weight]	SMILES	BCNU incorporated into GMO gel without disruption of the normal three-dimensional structure [1]
	O=NN(CCCl)C(=O)NCCCl [BCNU, 1,3-bis[2-chloroethyl]-1-nitrosourea]	approximately 7.5 % by weight
≤ 20	CCCCCCCCCCCCCCCCCC(=O)OCC(O)CO (centres unmarked) [GMS, glyceryl monostearate]	

From US6488952B1, “Semisolid therapeutic delivery system and combination semisolid, multiparticulate, therapeutic delivery system” (priority 2001, dated 2002)
